Results taken from the NIST ThermoML archive (doi:10.1021/je800921n).

Experiments:
[1] = Crystal; Differential scanning calorimeter
[2] = Molar enthalpy of transition or fusion; details: Crystal; Differential scanning calorimeter

For `O=C(O)CCCCCCCC(=O)O` [1,9-nonanedioic acid], the Normal melting temperature [1] was 102.5 °C and the “Molar enthalpy of transition or fusion” value [2] was 8.44 kcal/mol.
